# Patent publication US20170000784A1, “Autophagy Inhibitors” (priority 2013, published 2017)
# Where two headings read alike, the source gives them in different places.
# Legend:
# [1] = tested on: A375 cells; type: cell-based, human; details: A375 soft agar; single compound at IC10
# Text: After three weeks of treatment, cells were fixed and stained in 1% paraformaldehyde in 1×PBS containing 0.005% crystal violet overnight. Cells were destained with multiple washes of 1×PBS to remove background staining. Plates were scanned and images quantified using Nikon NIS Elements software. To quantify, each image was sharpened and an ROI of equal size drawn around each well. Intensity thresholds were set to include all pixels equal to or greater than the intensity of the mean background fluorescence. Objects within the threshold of each ROI were quantified using an automated object count function and exported for analysis. Object number was quantified to denote total colony formation. […] Additivity was established when the expected viability determined by the Bliss independence model was equal to the actual viability. This model was chosen since the effects of both compounds are mutually non-exclusive and follow first order Michaelis-Menten kinetics.
# To determine if the effects of each combination were more than, less than, or equal to additive, predictions for additivity were made using the Bliss Independence (Table 7), as disclosed in Yan H, Zhang B, Li S, Zhao Q. A formal model for analyzing drug combination effects and its application in TNF-alpha-induced NFkappaB pathway. BMC Syst. […] Drug combination studies and their synergy quantification using the Chou-Talalay method.
# [2] = tested on: U2OS cells stably expressing tfLC3; type: cell-based; details: for Effective Concentration (EC): concentration with statistically significant increase in puncta number over vehicle control, three hours
# Procedure: U2OS cells stably expressing tfLC3 were seeded at 50,000 cells per well in 5A McCoy's with 10% FBS on number 1.5 coverglass in 24-well tissue culture dishes. After 24 hours, cells were treated with known autophagy controls rapamycin [100 nM] (Millipore, 553210-10 mg), bafilomycin A1 [100 nM] (AG Scientific, B-1183), AZD-8055 [100 nM](Selleck Chemicals, S1555), and CQ [50 μM] as well as autophagy inhibitors (CQ, QN, Example 7, and Example 27) at doses of 0.1 μM, 0.25 μM, 0.5 μM, 1 μM, 5 μM, 15 μM, 25 μM, and 50 μM for three hours. Cells were washed with 1×PBS, fixed with 3.7% formaldehyde, and nuclei were stained with Hoechst 33342 (2 μg/mL). Coverglass was inverted onto microscope slides using mounting gel. Cells were imaged using a 60× oil-immersion objective on a Nikon Eclipse Ti fluorescent microscope and 10 images at each dose were taken for quantification. Image processing and quantification were completed with the Nikon NIS Elements software. To quantify, images were deconvolved using a 2D blind deconvolution function with one iteration and settings of normal cell thickness and normal noise level. Regions of interest (ROI) were drawn around the edges of each cell. Intensity thresholds were set to include all pixels equal to or greater than the intensity above the mean background fluorescence using the separation feature and restrictions set for puncta size (FIG. 9). Objects within the threshold for each ROI were quantified using an automated object count function and exported for analysis. Although other parameters were also collected, the mean intensity of the objects was averaged between the 10 images of each dose, or approximately 50 cells (FIGS. 9B and 9C). Representative images were chosen for each dose and the lookup table (LUT) brightness' were set based on the mean intensity of the DMSO control (FIGS. 8A and 10A). The mean intensity of each image was divided by the mean intensity of the DMSO control to control for brightness and the LUTs were adjusted by the percent difference to avoid background and for consistent visualization. All other settings (gain, exposure time, and lamp strength) were kept the same across all conditions. […] Mean intensity was further chosen for quantification as it accurately represents both the increase in puncta number and area when the accumulation of autophagosomes partially fuse (FIG. 9C, 9D). Quantification of the red channel (RFP-LC3 puncta) was performed to determine the total autophagic vesicle population (both autophagosomes and autolysosomes).
# Autophagy inhibition can be measured by fluorescent microscopy using cells expressing a tandem fluorescent (RFP-GFP) labeled LC3 sensor (tfLC3). Upon autophagosome nucleation, LC3 is localized to the autophagic membrane and the overlapping GFP and RFP fluorescence appears as yellow puncta. After the autophagosome matures, it fuses with the lysosome, forming an autolysosome. The GFP in this LC3 sensor is pH labile and becomes quenched by the acidic environment of the autolysosome. However, the RFP remains stable; therefore, autolysosomes are indicated by red puncta. Accordingly, when autophagy is inhibited at the final stage (completion), the abundance of yellow puncta is expected to increase proportionally to the level of autophagy inhibition.
# Cells were then fixed and imaged by fluorescent microscopy.
# [3] = tested on: endogenous LC3 in U2OS cells; assay: Western blot of endogenous LC3 (LC3-II accumulation) in U2OS; type: cell-based; details: three hours, basally and in response to rapamycin-induced autophagy induction, FIG. 7
# Procedure: For Western blotting, U2OS cells were seeded in 10 cm plates in 5A McCoy's with 10% FBS at 1×10^6 cells per plate. […] After treatment, cells were lysed [10 mM KPO4, 1 mM EDTA, 10 mM MgCl2, 5 mM EGTA, 50 mM bis-glycerophosphate, 0.5% NP40, 0.1% Brij35, 0.1% sodium deoxycholate, 1 mM NaVO4, 5 mM NaF, 2 mM DTT, and complete protease inhibitors (Sigma, P8340-5 mL)] and 50 μg of protein was resolved by SDS-PAGE. […] Proteins were detected with enhanced chemiluminescence or using the Odyssey machine and quantified (FIGS. 12, 15, 16, 7 and 11).
# [4] = tested on: lysosomes (LAMP1, LysoTracker Red) in U2OS cells; assay: Lysosome analysis by fluorescent microscopy (LAMP1 / LysoTracker Red); type: cell-based; details: 3 μM for 3 hours
# Procedure: To determine deacidification of the lysosome, cells were incubated with LysoTracker Red, a dye that localizes to the lysosome based on the […] of the compartment. If the lysosome is no longer acidic, there is a loss in the amount of LysoTracker Red staining. Lysosomal inhibition was further determined by immunofluorescence of lysosome-associated membrane protein-1 (LAMP1). If the lysosome is inhibited, lysosomal turnover should decrease and an increase in the amount of LAMP1 staining would be apparent. U2OS cells were treated with Example 7 or Example 26 at 3 μM for 3 hours, supplementing LysoTracker Red for the final hour.
# Using image analysis software, the mean intensities of both the LAMP1 and LysoTracker Red staining were measured and represent altered intensity level between treatments on intensity plots. Individual points were measured using a line scan on the image analysis software, which measures the intensity across the path of a line at any given point. Not only does the presence of LAMP1 positive membranes increases, but the intensity in LAMP1 staining also increases with Example 7 and Example 26 treatment. The inverse relationship in intensity holds true for LysoTracker Red staining.
# U2OS cells were seeded at 5×10^4 cells per well in 5A McCoy's with 10% FBS on number 1.5 coverglass discs in 24-well tissue culture dishes. After 24 hours, cells were treated with 3 μM CQ, QN, VATG-027, or VATG-032 for three hours. An hour prior to fixation, media was supplemented with LysoTracker Red added at 100 nM (Invitrogen, L7528). Cells were washed with 1×PBS, fixed with 3.7% formaldehyde, permeabilized with 0.2% Triton-X 100, and blocked with 3% bovine serum albumin (BSA) in PBS. LAMP1 antibody (Santa Cruz, sc-18821) was added at 1:1000 for 16 hours at 4° C. followed by Alexa-Fluor-488-conjugated anti-mouse IgG (Invitrogen, A11008) 1:5000 for 1 hour at room temperature. Nuclei were stained with Hoechst 33342 (2 μg/mL). Coverglass discs were inverted onto a microscope slide using mounting gel. The microscope slides were imaged using a 60× oil-immersion objective on a Nikon Eclipse Ti fluorescent microscope. Intensity of the red and green channels were visualized using the intensity plot on the Nikon NIS Elements software (FIG. 13B). […] The RGB threshold of only the color […] indicating both LAMP1 and LysoTracker Red positivity was performed and data for analysis. The Mander's co-localization coefficient was produced from the Nikon NIS Elements software.
# Next, the inventors sought to confirm the inhibition of lysosomal turnover induced by the compounds of the present invention, for example, those of Formula III, Formula III(a), Formula V, Formula V(a), Formula A, Formula A^1, Formula A^2, Formula A^3, or a pharmaceutically acceptable salt thereof, by evaluating the abundance of endogenous lysosomal protein, LAMP1. In addition, lysosome acidity was assessed by co-staining cells with LysoTracker Red, a dye that localizes to the lysosome based on the low pH. Cells were treated with 3 μM CQ, QN, Example 7, or Example 27 for 3 hours, with LysoTracker Red supplemented for the final hour. Following, cells were fixed and stained with endogenous LAMP1 antibodies and both LAMP1 and LysoTracker Red imaged. […] To quantify this phenotype, the co-localization of LAMP1 and LysoTracker Red was measured using image analysis software. […] In addition, Mander's colocalization coefficient (MCC) values were determined for each treatment (FIG. 13C). Not only does the presence of LAMP1-positive membranes increase, but the intensity of LAMP1 staining also increases with QN, Example 7, and Example 27 treatment (FIG. 13C).
Compound,Potency (EC/ECCQ) [2],Effective Concentration (EC) [2],accumulation of LC3-II [3],also measured
"COc1ccc(-c2ccc3c(N4CCOC[C@@H]4C)nc(N4CCOC[C@@H]4C)nc3n2)cc1CO [AZD-8055, reference compound]",,,,Relative Growth Inhibition Compound B [1]: 0.12
"CCN(CC)Cc1cc(Nc2ccnc3cc(Cl)ccc23)ccc1O [Amodiaquine, amodiaquine]",1,15 µM,induce the accumulation of LC3-II,
"CCN1CCC(Nc2c3c(nc4cc(Cl)ccc24)CCCC3)CC1 [Example 26, 6-Chloro-N-(1-ethylpiperidin-4-yl)-1,2,3,4-tetrahydroacridin-9-amine]",,,,LAMP1 staining [4]: increases; LysoTracker Red staining ([4]; LysoTracker Red for the final hour): less intense
"COc1cc(NC(C)CCCN)c2ncccc2c1 (stereo not drawn) [Primaquine, primaquine]",,50 µM,induce the accumulation of LC3-II,"Potency (EC/ECCQ) ([2]; relative potency score versus chloroquine, greater than one = more potent than CQ): 0.25"
piperaquine,0.25,50 µM,induce the accumulation of LC3-II,
